Read-outs that look alike come from different tables or passages of the source.
Tests used:
[1] = Stability in liver microsomes, human; conditions: for AUC: human
[2] = Stability in liver microsomes, rat
[3] = Stability in liver microsomes, dog
[4] = Stability in cryopreserved hepatocytes, human; conditions: for AUC: human
[5] = Stability in cryopreserved hepatocytes, rat; conditions: for AUC: rat
[6] = Stability in cryopreserved hepatocytes, dog; conditions: for AUC: dog
[7] = rat
[8] = dog

| Trep Concentration 0 min [1] [µM] | Trep Concentration 10 min [1] [µM] | Trep Concentration 20 min [1] [µM] | Trep Concentration 30 min [1] [µM] | Trep Concentration 60 min [1] [µM] | AUC [1] [µmol·min/L] | Trep Concentration 0 min [2] [µM] | Trep Concentration 10 min [2] [µM] | Trep Concentration 20 min [2] [µM] | Trep Concentration 30 min [2] [µM] | Trep Concentration 60 min [2] [µM] | Trep Concentration 0 min [3] [µM] | Trep Concentration 10 min [3] [µM] | Trep Concentration 20 min [3] [µM] | Trep Concentration 30 min [3] [µM] | Trep Concentration 60 min [3] [µM] | Trep Concentration (μM) 0 min [4] [µM] | Trep Concentration (μM) 15 min [4] [µM] | Trep Concentration (μM) 30 min [4] [µM] | Trep Concentration (μM) 60 min [4] [µM] | Structure (SMILES) | further results |
| --- | --- | --- | --- | --- | --- | --- | --- | --- | --- | --- | --- | --- | --- | --- | --- | --- | --- | --- | --- | --- | --- |
| 0.0209 | 0.0312 | 0.0361 | 0.0389 | 0.0332 | 2.05 | 0 | 0 | 0.00316 | 0.00337 | 0.00402 | 0.00725 | 0.0115 | 0.0157 | 0.0196 | 0.0259 | 0 | 0.0213 | 0.0378 | 0.0556 | CCCCCC(CCC1C(O)CC2Cc3c(cccc3OCC(=O)O)CC21)OC(=O)c1ccccc1O (centres unmarked) [LXI] | Trep Concentration (μM) 120 min [4]: 0.0701 µM; AUC [4]: 5.78 µmol·min/L; Trep Concentration (μM) 0 min [5]: 0 µM; Trep Concentration (μM) 15 min [5]: 0 µM; Trep Concentration (μM) 30 min [5]: 0.00373 µM; Trep Concentration (μM) 60 min [5]: 0.00634 µM; Trep Concentration (μM) 120 min [5]: 0.00941 µM; AUC [5]: 0.65 µmol·min/L; Trep Concentration (μM) 0 min [6]: 0 µM; Trep Concentration (μM) 15 min [6]: 0 µM; Trep Concentration (μM) 30 min [6]: 0.00299 µM; Trep Concentration (μM) 60 min [6]: 0.00396 µM; Trep Concentration (μM) 120 min [6]: 0.00663 µM; AUC [6]: 0.44 µmol·min/L; AUC [7]: 0.16 µmol·min/L; AUC [8]: 1.09 µmol·min/L |
| 0.0917 | 0.141 | 0.174 | 0.2 | 0.206 | 10.70 | 0.0741 | 0.0998 | 0.124 | 0.139 | 0.139 | 0.127 | 0.188 | 0.254 | 0.3 | 0.372 | 0 | 0.0881 | 0.14 | 0.194 | CCCCCC(CCC1C(O)CC2Cc3c(cccc3OCC(=O)O)CC21)OC(=O)c1ccc(C(F)(F)F)cc1 (centres unmarked) [LXII] | Trep Concentration (μM) 120 min [4]: 0.222 µM; AUC [4]: 19.86 µmol·min/L; Trep Concentration (μM) 0 min [5]: 0.00378 µM; Trep Concentration (μM) 15 min [5]: 0.0946 µM; Trep Concentration (μM) 30 min [5]: 0.156 µM; Trep Concentration (μM) 60 min [5]: 0.227 µM; Trep Concentration (μM) 120 min [5]: 0.264 µM; AUC [5]: 23.09 µmol·min/L; Trep Concentration (μM) 0 min [6]: 0 µM; Trep Concentration (μM) 15 min [6]: 0.0486 µM; Trep Concentration (μM) 30 min [6]: 0.0833 µM; Trep Concentration (μM) 60 min [6]: 0.128 µM; Trep Concentration (μM) 120 min [6]: 0.166 µM; AUC [6]: 13.34 µmol·min/L; AUC [7]: 7.47 µmol·min/L; AUC [8]: 16.64 µmol·min/L |

Second part, the molecule before the results:

| Structure (SMILES) | Trep Concentration 0 min [1] [µM] | Trep Concentration 10 min [1] [µM] | Trep Concentration 20 min [1] [µM] | Trep Concentration 30 min [1] [µM] | Trep Concentration 60 min [1] [µM] | AUC [1] [µmol·min/L] | Trep Concentration 0 min [2] [µM] | Trep Concentration 10 min [2] [µM] | Trep Concentration 20 min [2] [µM] | Trep Concentration 30 min [2] [µM] | Trep Concentration 60 min [2] [µM] | Trep Concentration 0 min [3] [µM] | Trep Concentration 10 min [3] [µM] | Trep Concentration 20 min [3] [µM] | Trep Concentration 30 min [3] [µM] | Trep Concentration 60 min [3] [µM] | Trep Concentration (μM) 0 min [4] [µM] | Trep Concentration (μM) 15 min [4] [µM] | Trep Concentration (μM) 30 min [4] [µM] | Trep Concentration (μM) 60 min [4] [µM] | further results |
| --- | --- | --- | --- | --- | --- | --- | --- | --- | --- | --- | --- | --- | --- | --- | --- | --- | --- | --- | --- | --- | --- |
| CCCCC[C@H]1CC[C@@H]2[C@H]3Cc4cccc(OCC(=O)O)c4C[C@H]3C[C@H]2OC(=O)O1 [XXIV] | 0.326 | 0.342 | 0.341 | 0.326 | 0.23 | 18.43 | 0.779 | 0.791 | 0.79 | 0.802 | 0.681 | 0.892 | 0.975 | 0.948 | 0.945 | 0.86 | 0.041 | 0.228 | 0.264 | 0.312 | Trep Concentration (μM) 120 min [4]: 0.328 µM; AUC [4]: 33.55 µmol·min/L; Trep Concentration (μM) 0 min [5]: 0.365 µM; Trep Concentration (μM) 15 min [5]: 0.581 µM; Trep Concentration (μM) 30 min [5]: 0.531 µM; Trep Concentration (μM) 60 min [5]: 0.482 µM; Trep Concentration (μM) 120 min [5]: 0.431 µM; AUC [5]: 58.02 µmol·min/L; Trep Concentration (μM) 0 min [6]: 0.0779 µM; Trep Concentration (μM) 15 min [6]: 0.461 µM; Trep Concentration (μM) 30 min [6]: 0.438 µM; Trep Concentration (μM) 60 min [6]: 0.349 µM; Trep Concentration (μM) 120 min [6]: 0.296 µM; AUC [6]: 41.94 µmol·min/L; AUC [7]: 45.96 µmol·min/L; AUC [8]: 55.49 µmol·min/L |
| CCCCCC(CCC1C(O)CC2Cc3c(cccc3OCC(=O)O)CC21)OCC(=O)O (centres unmarked) [LVII] | 0 | 0 | 0 | 0 | 0 | 0.00 | 0 | 0 | 0 | 0 | 0 | 0 | 0 | 0 | 0 | 0 | 0 | 0 | 0 | 0 | Trep Concentration (μM) 120 min [4]: 0 µM; AUC [4]: 0.00 µmol·min/L; Trep Concentration (μM) 0 min [5]: 0 µM; Trep Concentration (μM) 15 min [5]: 0 µM; Trep Concentration (μM) 30 min [5]: 0 µM; Trep Concentration (μM) 60 min [5]: 0 µM; Trep Concentration (μM) 120 min [5]: 0 µM; AUC [5]: 0.00 µmol·min/L; Trep Concentration (μM) 0 min [6]: 0 µM; Trep Concentration (μM) 15 min [6]: 0 µM; Trep Concentration (μM) 30 min [6]: 0 µM; Trep Concentration (μM) 60 min [6]: 0 µM; Trep Concentration (μM) 120 min [6]: 0 µM; AUC [6]: 0.00 µmol·min/L; AUC [7]: 0.00 µmol·min/L; AUC [8]: 0.00 µmol·min/L |
| CCCCCC(CCC1C(O)CC2Cc3c(cccc3OCC(=O)O)CC21)OC(C)=O (centres unmarked) [XLIII] | 0.883 | 0.681 | 0.602 | 0.513 | 0.341 | 32.62 | 0.035 | 0.0741 | 0.111 | 0.145 | 0.206 | 0.964 | 0.917 | 0.899 | 0.932 | 0.873 | 0.00744 | 0.573 | 0.623 | 0.54 | Trep Concentration (μM) 120 min [4]: 0.507 µM; AUC [4]: 62.18 µmol·min/L; Trep Concentration (μM) 0 min [5]: 0.00292 µM; Trep Concentration (μM) 15 min [5]: 0.161 µM; Trep Concentration (μM) 30 min [5]: 0.266 µM; Trep Concentration (μM) 60 min [5]: 0.397 µM; Trep Concentration (μM) 120 min [5]: 0.503 µM; AUC [5]: 41.38 µmol·min/L; Trep Concentration (μM) 0 min [6]: 0.0381 µM; Trep Concentration (μM) 30 min [6]: 0.543 µM; Trep Concentration (μM) 60 min [6]: 0.446 µM; Trep Concentration (μM) 120 min [6]: 0.4 µM; AUC [6]: 53.99 µmol·min/L; AUC [7]: 8.02 µmol·min/L; AUC [8]: 54.72 µmol·min/L |

Reference: patent publication US12491170B2, “Stable treprostinil prodrugs” (United Therapeutics Corporation, priority 2020, dated 2025)
